Measured values: article PMC4907642 (Journal of medicinal chemistry, 2015)

Assays:
[1] = target: EML4-ALK G1202R transformed Ba/F3 cells (Homo sapiens, UniProt Q9HC35+Q9UM73, G1202R); settings: 1 µM, result in words
panel of 456 kinases = settings: 1 µM

Sequence of EML4-ALK G1202R transformed Ba/F3 cells (Q9UM73 1058-1620 G1202R limits assumed, one chain of several): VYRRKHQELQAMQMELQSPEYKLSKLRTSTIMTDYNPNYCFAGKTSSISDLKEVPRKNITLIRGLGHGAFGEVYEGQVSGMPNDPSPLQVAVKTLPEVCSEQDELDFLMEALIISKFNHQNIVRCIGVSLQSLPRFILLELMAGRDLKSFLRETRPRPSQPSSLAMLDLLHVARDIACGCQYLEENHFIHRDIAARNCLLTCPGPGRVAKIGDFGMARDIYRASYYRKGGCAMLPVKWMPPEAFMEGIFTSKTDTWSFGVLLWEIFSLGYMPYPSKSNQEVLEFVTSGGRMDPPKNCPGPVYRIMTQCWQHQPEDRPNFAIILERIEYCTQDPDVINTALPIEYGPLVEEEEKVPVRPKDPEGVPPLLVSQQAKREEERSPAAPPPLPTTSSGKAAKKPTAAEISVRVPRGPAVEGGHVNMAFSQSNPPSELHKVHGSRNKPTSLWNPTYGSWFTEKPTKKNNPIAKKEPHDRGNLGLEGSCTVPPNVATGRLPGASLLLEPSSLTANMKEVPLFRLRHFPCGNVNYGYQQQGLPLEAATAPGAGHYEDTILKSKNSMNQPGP

| Structure (SMILES) | single point inhibition of the G1202R mutant [1] | KINOMEscan interactions mapped (panel of 456 kinases) |
| --- | --- | --- |
| CCc1cc2c(cc1-c1cc[nH]n1)C(C)(C)c1[nH]c3cc(C#N)ccc3c1C2=O [Compound 9, 9-ethyl-6,6-dimethyl-11-oxo-8-(1H-pyrazol-3-yl)-6,11-dihydro-5H-benzo[b]carbazole-3-carbonitrile] | quite potent | – |
| CCc1cc2c(cc1-c1ccoc1)C(C)(C)c1[nH]c3cc(C#N)ccc3c1C2=O [Compound 11, 9-ethyl-8-(furan-3-yl)-6,6-dimethyl-11-oxo-6,11-dihydro-5H-benzo[b]carbazole-3-carbonitrile] | much less inhibitory activity | – |
| CCc1cc2c(cc1[C@H](O)CO)C(C)(C)c1[nH]c3cc(C#N)ccc3c1C2=O [Compound 23, (S)-8-(1,2-dihydroxyethyl)-9-ethyl-6,6-dimethyl-11-oxo-6,11-dihydro-5H-benzo[b]carbazole-3-carbonitrile] | much less potent | – |
| CCc1cc2c(cc1C(=O)O)C(C)(C)c1[nH]c3cc(C#N)ccc3c1C2=O [Compound 24, 3-cyano-9-ethyl-6,6-dimethyl-11-oxo-6,11-dihydro-5H-benzo[b]carbazole-8-carboxylic acid] | much less potent | – |
| CCc1cc2c(cc1/C=C/CN1CCOCC1)C(C)(C)c1[nH]c3cc(C#N)ccc3c1C2=O [Compound 25, (E)-9-ethyl-6,6-dimethyl-8-(3-morpholinoprop-1-en-1-yl)-11-oxo-6,11-dihydro-5H-benzo[b]carbazole-3-carbonitrile] | no activity | – |
| CCc1cc2c(cc1-c1cnn(CCCN(C)C)c1)C(C)(C)c1[nH]c3cc(C#N)ccc3c1C2=O [Compound 32, 8-(1-(3-(dimethylamino)propyl)-1H-pyrazol-4-yl)-9-ethyl-6,6-dimethyl-11-oxo-6,11-dihydro-5H-benzo[b]carbazole-3-carbonitrile] | – | 39 |

Continued, in another order:

| single point inhibition of the G1202R mutant [1] | Structure (SMILES) | KINOMEscan interactions mapped (panel of 456 kinases) |
| --- | --- | --- |
| quite potent | CCc1cc2c(cc1-c1cnn(C)c1)C(C)(C)c1[nH]c3cc(C#N)ccc3c1C2=O [Compound 7, 9-ethyl-6,6-dimethyl-8-(1-methyl-1H-pyrazol-4-yl)-11-oxo-6,11-dihydro-5H-benzo[b]carbazole-3-carbonitrile] | – |
| quite potent | CCc1cc2c(cc1-c1cn[nH]c1)C(C)(C)c1[nH]c3cc(C#N)ccc3c1C2=O [Compound 8, 9-ethyl-6,6-dimethyl-11-oxo-8-(1H-pyrazol-4-yl)-6,11-dihydro-5H-benzo[b]carbazole-3-carbonitrile] | – |
| much less inhibitory activity | CCc1cc2c(cc1-c1cccs1)C(C)(C)c1[nH]c3cc(C#N)ccc3c1C2=O [Compound 12, 9-ethyl-6,6-dimethyl-11-oxo-8-(thiophen-2-yl)-6,11-dihydro-5H-benzo[b]carbazole-3-carbonitrile] | – |
| potent inhibition | CCc1cc2c(cc1N1CCC(N(C)C)CC1)C(C)(C)c1[nH]c3cc(C#N)ccc3c1C2=O [Compound 17, 8-(4-(dimethylamino)piperidin-1-yl)-9-ethyl-6,6-dimethyl-11-oxo-6,11-dihydro-5H-benzo[b]carbazole-3-carbonitrile] | – |
| potent inhibition | CCc1cc2c(cc1N1CCN(C)CC1)C(C)(C)c1[nH]c3cc(C#N)ccc3c1C2=O [Compound 19, 9-ethyl-6,6-dimethyl-8-(4-methylpiperazin-1-yl)-11-oxo-6,11-dihydro-5H-benzo[b]carbazole-3-carbonitrile] | – |
| much less potent | CCc1cc2c(cc1C#N)C(C)(C)c1[nH]c3cc(C#N)ccc3c1C2=O [Compound 21, 9-ethyl-6,6-dimethyl-11-oxo-6,11-dihydro-5H-benzo[b]carbazole-3,8-dicarbonitrile] | – |
| much less potent | CCc1cc2c(cc1[C@@H](O)CO)C(C)(C)c1[nH]c3cc(C#N)ccc3c1C2=O [Compound 22, (R)-8-(1,2-dihydroxyethyl)-9-ethyl-6,6-dimethyl-11-oxo-6,11-dihydro-5H-benzo[b]carbazole-3-carbonitrile] | – |
| quite potent | CCc1cc2c(cc1-c1cnn(C(C)(C)C(=O)N(C)C)c1)C(C)(C)c1[nH]c3cc(C#N)ccc3c1C2=O [Compound 35, 2-(4-(3-cyano-9-ethyl-6,6-dimethyl-11-oxo-6,11-dihydro-5H-benzo[b]carbazol-8-yl)-1H-pyrazol-1-yl)-N,N,2-trime-thylpropanamide] | – |
| quite potent | CCc1cc2c(cc1-c1cnn(C(=O)N(C)C)c1)C(C)(C)c1[nH]c3cc(C#N)ccc3c1C2=O [Compound 36, 4-(3-cyano-9-ethyl-6,6-dimethyl-11-oxo-6,11-dihydro-5H-benzo[b]carbazol-8-yl)-N,N-dimethyl-1H-pyrazole-1-carboxamide] | – |
